Results reported in patent US7985774B2, “Use of 3,5-seco-4-nor-cholestane derivatives for obtaining a cytoprotective drug” (Trophos, priority 2006, dated 2011).

Tested on: rabbit ventricular cardiomyocytes
Assay: Contractile dysfunction test induced by doxorubicin (sarcomer shortening)
Type: cell-based
Conditions: after 4 hrs of exposure
Protocol: A stock solution of 3,5-seco-4-nor-cholestan-5-one oxime-3-ol at a concentration of 10 mM in 100% DMSO was used.
The final concentration in DMSO was the same for all the experimental points, independently of the molecular concentrations used.
3,5-seco-4-nor-cholestan-5-one oxime-3-ol was tested at concentrations of 0.1 and 0.3 μM, diluted in a Tyrode solution (composition in mmol/L: NaCl 135, KCl 5.4, NaH2PO4 0.33, CaCl2 1.2, MgCl2 1.0, Hepes 10; pH adjusted to 7.4 with NaOH).
Isolated ventricular cells are obtained from hearts of male New Zealand rabbits as described in A. d'Anglemont de Tassigny et al., Fund. Clin. Pharmacol, 18: 531-38, 2004. Briefly, the rabbits (2.0-2.5 kg) are anaesthetized with a pentobarbital solution (50 mg/kg) and they then receive heparin (200 IU/kg). The hearts are excised and immediately perfused, for 10-15 minutes by means of a Langendorff apparatus without recirculation with an oxygenated tyrode (calcium-free) isotonic solution (95%, 2-5% CO2) (in mM: NaCl 135, KCl 5.4, Na2PO4 0.33, MgCl2 1.0, HEPES 10, pH adjusted to 7.4 with 1N NaOH at 37° C., 280-300 mOsmol/kgH2O). […]
The myocytes were selected for the study according to the following criterion: a rod-like aspect with very apparent striations and no intracellular vacuola, no spontaneous contraction when they are stimulated with 1 mM Ca^2+, and with constant rest length and contraction amplitude. The length of the sarcomers was measured by means of a video image analysis program and the data were acquired at a rate of 240 samples/s. […]
Apoptosis is induced in isolated cardiomyocytes by 3-8 hour exposure to 1 μM of doxorubicin added into an isotonic solution containing (in mM) NaCl 110, KCl 5.4, Na2PO4 0.33, NaHCO3 25, glucose 5, MgCl2 0.8, CaCl2 1, pH adjusted to 7.4. […] The contractility of cardiomyocytes was measured every hour during the 8 hrs of exposure to doxorubicin. […]

CC(C)CCC[C@@H](C)[C@H]1CC[C@H]2[C@@H]3CC/C(=N\O)[C@](C)(CCCO)[C@H]3CC[C@]12C [3,5-seco-4-nor-cholestan-5-one oxime-3-ol]
shortening of the peak relatively to the base line (doxorubicin 1 μM + compound 0.1 μM (15 min pre-treatment)): 18.9±5.4% | shortening of the peak relatively to the base line (doxorubicin 1 μM + compound 0.3 μM (15 min pre-treatment)): −8.1±9.6%
